One series has as its system female white mice. Put plainly: animal or person. The conditions noted are these: Mus musculus, po.
Another series is described as follows: in vivo. The conditions noted are these: mouse, in vivo, po.
Series [1] has as its system phenylquinone-induced writhing. Put plainly: Phenylquinone writhing test (analgesia). Format: in vivo, mouse (Carworth CF1 S female). The conditions noted are these: Mus musculus. The source says:
This mouse test is predictive of analgesic response in humans. [E. Siegmund, R. Cadmus and G. Lee, Proc. Soc.
ED50 values were obtained graphically from the data.

Setting [2] is: read-out: Exploratory Loss Visual ED50, Table 1, oral, mice.
The mark [3] stands for this setting: read-out: Reflexes Grip ED50, Table 1, oral, mice.
The mark [4] stands for this setting: read-out: Reflexes Lift ED50, Table 1, oral, mice.
Setting [5] is: read-out: Reflexes Pinna ED50, Table 1, oral, mice.
The mark [6] stands for this setting: read-out: Catatonia ED50, Table 1, oral, mice.
Where [7] appears, read: read-out: Muscle Tone ED50, Table 1, oral, mice.
Setting [8] is: read-out: Ptosis ED50, Table 1, oral, mice.

Like-named read-outs stand apart in the source and are kept apart here. A value given as a limit tells only on which side of the number the result lay.

For 15 compounds, ED50 and LD50 results are on record in patent US4088772A, “Methanodibenzocycloheptapyrroles” (E. I. Du Pont de Nemours and Company, priority 1975, dated 1978).

For `CCCCCCCCN1CC2c3ccccc3C3CC2(C1)c1ccccc13` (centres unmarked) [Example 16, 2-n-Octyl-2,3,8,12b-tetrahydro-1H-3a,8-methanodibenzo[3,4:6,7]cyclohepta[1,2-c]pyrrole], the ED50 was 20 mg/kg with female white mice (setting [2]); over 324 mg/kg in the series with female white mice (setting [3]); 20 mg/kg in the series with female white mice (setting [4]); 20 mg/kg with female white mice (setting [5]); over 324 mg/kg in “in vivo”; 12 mg/kg in series [1] (po, Table 1, mice). Also, the LD50 at 24 h in the series “in vivo” was over 324 mg/kg.
For `CCC(CC)CN1CC2c3ccccc3C3CC2(C1)c1ccccc13` (centres unmarked) [Example 17, 2-(2-Ethylbutyl)-2,3,8,12b-tetrahydro-1H-3a,8-methanodibenzo[3,4:6,7]cyclohepta[1,2-c]pyrrole], the 50% effective dose (ED50) in the series on female white mice (setting [6]) was 36 mg/kg; in the series with female white mice (setting [2]), 200 mg/kg; with female white mice (setting [7]), 100 mg/kg; in the series with female white mice (setting [8]), 100 mg/kg; with female white mice (setting [3]), over 324 mg/kg; in the series on female white mice (setting [4]), 200 mg/kg. Moreover, the ED50 was 200 mg/kg in the series with female white mice (setting [5]); over 324 mg/kg in the series “in vivo”; 48 mg/kg in series [1] (po, Table 1, mice). In addition, in “in vivo”, the LD50 at 24 h is over 324 mg/kg.
Consider `C#CCN1CC2c3ccccc3C3CC2(C1)c1ccccc13` (centres unmarked) [Example 18, 2-Propargyl-2,3,8,12b-tetrahydro-1H-3a,8-methanodibenzo[3,4:6,7]cyclohepta[1,2-c]pyrrole], for which the ED50 is 100 mg/kg in the series with female white mice (setting [6]); 200 mg/kg with female white mice (setting [2]); 300 mg/kg with female white mice (setting [7]); 200 mg/kg in the series with female white mice (setting [8]); over 324 mg/kg in the series on female white mice (setting [3]); 200 mg/kg with female white mice (setting [4]). Further, the 50% effective dose (ED50) was over 324 mg/kg in the series with female white mice (setting [5]); over 324 mg/kg in “in vivo” (Tremors ED50, Table 1, mice); over 135 mg/kg in series [1] (Table 1, oral, mice). Also, the 50% lethal dose (LD50) at 24 h in the series “in vivo” is over 324 mg/kg.
With `C=C1CC(CN2CC3c4ccccc4C4CC3(C2)c2ccccc24)C1` (centres unmarked) [Example 20, 2-(3-Methylenecyclobutylmethyl)-2,3,8,12b-tetrahydro-1H-3a,8-methanodibenzo[3,4:6,7]cyclohepta[1,2-c]pyrrole], the 50% effective dose (ED50) with female white mice (setting [6]) is 13 mg/kg; with female white mice (setting [2]) it was 21 mg/kg; in the series on female white mice (setting [7]) it was 15 mg/kg; in the series on female white mice (setting [8]), 11 mg/kg; with female white mice (setting [3]) it was 362 mg/kg; with female white mice (setting [4]), 21 mg/kg. The ED50 was 24 mg/kg with female white mice (setting [5]); over 324 mg/kg in “in vivo”; 8.2 mg/kg in series [1] (po, Table 1, mice). In “in vivo”, this compound returned a 50% lethal dose (LD50) at 24 h of over 324 mg/kg.
As to `C1=C(CN2CC3c4ccccc4C4CC3(C2)c2ccccc24)CCC1` (centres unmarked) [Example 21, 2-(1-Cyclopentenylmethyl)-2,3,8,12b-tetrahydro-1H-3a,8-methanodibenzo[3,4:6,7]cyclohepta[1,2-c]pyrrole], the ED50 stood at 20 mg/kg with female white mice (setting [6]); 7 mg/kg with female white mice (setting [2]); 36 mg/kg in the series with female white mice (setting [7]); 7 mg/kg in the series with female white mice (setting [8]); 300 mg/kg in the series on female white mice (setting [3]); 36 mg/kg with female white mice (setting [4]). The median effective dose (ED50) in the series on female white mice (setting [5]) is 20 mg/kg; in “in vivo” it was over 324 mg/kg; in series [1] (po, Table 1, mice) it was 2.9 mg/kg. Further, the LD50 at 24 h in “in vivo” is over 324 mg/kg.
In the case of `c1ccc2c(c1)C1CC3(CN(CCC4CCCC4)CC23)c2ccccc21` (centres unmarked) [Example 22, 2-(2-Cyclopentylethyl)-2,3,8,12b-tetrahydro-1H-3a,8-methanodibenzo[3,4:6,7]cyclohepta[1,2-c]pyrrole], the median effective dose (ED50) was 18 mg/kg with female white mice (setting [6]); 32 mg/kg in the series on female white mice (setting [2]); 3.6 mg/kg in the series with female white mice (setting [7]); 3 mg/kg in the series on female white mice (read-out: Ptosis ED50, Table 1, Extrapolated value); 265 mg/kg in the series on female white mice (setting [3]); 17 mg/kg with female white mice (setting [4]). Also, the ED50 in the series on female white mice (setting [5]) is 11 mg/kg; in “in vivo”, over 324 mg/kg; in series [1] (po, Table 1, mice) it was 10 mg/kg. This compound gave an LD50 at 24 h in the series “in vivo” of over 324 mg/kg.
On to `C1=CC(CCN2CC3c4ccccc4C4CC3(C2)c2ccccc24)CC1` (centres unmarked) [Example 23, 2-(2-Cyclopent-2-enylethyl)-2,3,8,12b-tetrahydro-1H-3a,8-methanodibenzo[3,4:6,7]cyclohepta[1,2-c]pyrrole], for which the ED50 with female white mice (setting [6]) amounted to 37 mg/kg; in the series with female white mice (setting [2]) it was 57 mg/kg; in the series on female white mice (setting [7]), 37 mg/kg; in the series with female white mice (setting [8]), 46 mg/kg; with female white mice (setting [3]), 265 mg/kg; in the series with female white mice (setting [4]) it was 88 mg/kg. In addition, the ED50 in the series on female white mice (setting [5]) was 62 mg/kg; in “in vivo”, over 324 mg/kg; in series [1] (po, Table 1, mice) it was 15 mg/kg. Also, in the series “in vivo”, the median lethal dose (LD50) at 24 h is over 324 mg/kg.
`c1ccc2c(c1)C1CC3(CN(CCCC4CCCC4)CC23)c2ccccc21` (centres unmarked) [Example 24, 2-(3-Cyclopentylpropyl)-2,3,8,12b-tetrahydro-1H-3a,8-methanodibenzo[3,4:6,7]cyclohepta[1,2-c]pyrrole]: the median effective dose (ED50) is 7 mg/kg in the series with female white mice (setting [6]); 7 mg/kg in the series on female white mice (setting [2]); over 324 mg/kg with female white mice (setting [3]); 17 mg/kg with female white mice (setting [4]); 17 mg/kg in the series with female white mice (setting [5]); over 324 mg/kg in “in vivo”. This compound also displayed an ED50 in series [1] (po, Table 1, mice) of 6 mg/kg. The compound further showed a 50% lethal dose (LD50) at 24 h in “in vivo” of over 324 mg/kg.
As to `C1=CCC(CN2CC3c4ccccc4C4CC3(C2)c2ccccc24)=CC1` (centres unmarked) [Example 28, 2-(1,4-Cyclohexadienylmethyl)-2,3,8,12b-tetrahydro-1H-3a,8-methanodibenzo[3,4:6,7]cyclohepta[1,2-c]pyrrole], the ED50 in the series with female white mice (setting [6]) is 24 mg/kg; with female white mice (setting [2]) it was 29 mg/kg; in the series with female white mice (setting [7]), 37 mg/kg; in the series with female white mice (setting [8]), 17 mg/kg; with female white mice (setting [3]), over 324 mg/kg; in the series on female white mice (setting [4]) it was 57 mg/kg. Further, the median effective dose (ED50) is 32 mg/kg with female white mice (setting [5]); over 324 mg/kg in the series “in vivo”; 8.6 mg/kg in series [1] (po, Table 1, mice). This compound came in with a 50% lethal dose (LD50) at 24 h in “in vivo” of over 324 mg/kg.
For the compound `c1ccc2c(c1)C1CC3(CN(CCC4CCCCC4)CC23)c2ccccc21` (centres unmarked) [Example 29, 2-(2-Cyclohexylethyl)-2,3,8,12b-tetrahydro-1H-3a,8-methanodibenzo[3,4:6,7]cyclohepta[1,2-c]pyrrole], the median effective dose (ED50) in the series on female white mice (setting [6]) is 21 mg/kg; in the series with female white mice (setting [2]) it was 24 mg/kg; in the series with female white mice (setting [7]) it was 24 mg/kg; in the series with female white mice (setting [8]) it was 17 mg/kg; in the series on female white mice (setting [3]), 290 mg/kg; with female white mice (setting [4]), 78 mg/kg. The 50% effective dose (ED50) in the series with female white mice (setting [5]) is 50 mg/kg; in the series “in vivo”, over 324 mg/kg; in series [1] (po, Table 1, mice), 28 mg/kg. The compound further registered an LD50 at 24 h in the series “in vivo” of over 324 mg/kg.
As to `c1ccc2c(c1)C1CC3(CN(CCCC4CCCCC4)CC23)c2ccccc21` (centres unmarked) [Example 30, 2-(3-Cyclohexylpropyl)-2,3,8,12b-tetrahydro-1H-3a,8-methanodibenzo[3,4:6,7]cyclohepta[1,2-c]pyrrole], the median effective dose (ED50) with female white mice (setting [6]) was 12 mg/kg; with female white mice (setting [2]) it was 4 mg/kg; in the series on female white mice (setting [8]), 4 mg/kg; in the series on female white mice (setting [3]), 200 mg/kg; with female white mice (setting [4]), 12 mg/kg; in the series “in vivo”, over 324 mg/kg. Further, the ED50 in series [1] (po, Table 1, mice) worked out at 7 mg/kg. This compound also came in with an LD50 at 24 h in “in vivo” of over 324 mg/kg.
As for `c1ccc2c(c1)C1CC3(CN(CCCCC4CCCCC4)CC23)c2ccccc21` (centres unmarked) [Example 31, 2-(4-Cyclohexylbutyl)-2,3,8,12b-tetrahydro-1H-3a,8-methanodibenzo[3,4:6,7]cyclohepta[1,2-c]pyrrole], the ED50 in the series on female white mice (setting [6]) is 26 mg/kg; in the series with female white mice (setting [2]), 21 mg/kg; in the series on female white mice (setting [7]), 24 mg/kg; with female white mice (setting [8]), 17 mg/kg; in the series on female white mice (setting [3]) it was over 324 mg/kg; in the series with female white mice (setting [4]) it was 37 mg/kg. Besides, the ED50 with female white mice (setting [5]) is 32 mg/kg; in “in vivo”, over 324 mg/kg; in series [1] (po, Table 1, mice), 14 mg/kg. Further, the LD50 at 24 h in “in vivo” was over 324 mg/kg.
`c1ccc2c(c1)C1CC3(CN(CC4CCCCCC4)CC23)c2ccccc21` (centres unmarked) [Example 32, 2-Cycloheptylmethyl-2,3,8,12b-tetrahydro-1H-3a,8-methanodibenzo[3,4:6,7]cyclohepta[1,2-c]pyrrole]: the ED50 was 12 mg/kg with female white mice (setting [6]); 7 mg/kg in the series on female white mice (setting [2]); 36 mg/kg in the series with female white mice (setting [7]); under 4 mg/kg in the series with female white mice (setting [8]); 200 mg/kg with female white mice (setting [3]); 20 mg/kg with female white mice (setting [4]). Further, the ED50 in the series with female white mice (setting [5]) is 60 mg/kg; in the series “in vivo”, over 324 mg/kg; in series [1] (po, Table 1, mice), 2.9 mg/kg. This compound also yielded a median lethal dose (LD50) at 24 h in the series “in vivo” of over 324 mg/kg.
Regarding `CC(C1CCCC1)N1C[C@@H]2c3ccccc3[C@@H]3C[C@@]2(C1)c1ccccc13` (some centres unmarked) [Example 50, 2-(1-Cyclopentylethyl)-2,3,8,12b-tetrahydro-1H-3a,8-methanodibenzo[3,4:6,7]cyclohepta[1,2-c]pyrrole], the median effective dose (ED50) in the series on female white mice (setting [6]) was 20 mg/kg; with female white mice (setting [2]) it was 20 mg/kg; in the series on female white mice (setting [7]) it was 36 mg/kg; with female white mice (setting [8]), 60 mg/kg; in the series with female white mice (setting [3]), 300 mg/kg; in the series on female white mice (setting [4]), 60 mg/kg. Besides, the ED50 was 36 mg/kg with female white mice (setting [5]); over 324 mg/kg in the series “in vivo”; 23 mg/kg in series [1] (po, Table 1, mice). In “in vivo”, this compound showed an LD50 at 24 h of over 324 mg/kg.
`CC1CCCC1CN1C[C@@H]2c3ccccc3[C@@H]3C[C@@]2(C1)c1ccccc13` (some centres unmarked) [Example 51, 2-(2-Methylcyclopentylmethyl)-2,3,8,12b-tetrahydro-1H-3a,8-methanodibenzo[3,4:6,7]cyclohepta[1,2-c]pyrrole]: the ED50 in the series on female white mice (setting [6]) was 60 mg/kg; in the series with female white mice (setting [2]) it was 100 mg/kg; in the series with female white mice (setting [7]), 60 mg/kg; with female white mice (setting [8]), 36 mg/kg; with female white mice (setting [3]), 300 mg/kg; in the series with female white mice (setting [4]), 60 mg/kg. Further, the 50% effective dose (ED50) in the series on female white mice (setting [5]) is 36 mg/kg; in the series “in vivo”, over 324 mg/kg; in series [1] (po, Table 1, mice) it was 10 mg/kg. The same compound registered an LD50 at 24 h in “in vivo” of over 324 mg/kg.
